Earlier results in patent US4361545A (Rowell Laboratories, Inc., priority 1981, dated 1982).

Cn1c(=O)c2[nH]cnc2n(C)c1=O [theophylline]
solubility: low to moderate solubility
